We go through six compounds from paper PMC9841519, “Corrole Nanoparticles for Chemotherapy of Castration-Resistant Prostate Cancer and as Sonodynamic Agents for Pancreatic Cancer Treatment” (Journal of Medicinal Chemistry, 2022).

The subject of one data set is MDA-MB-231. Put plainly: MTT assay, antitumor activity (Figure 1 table). The following applies: for IC50: read-out: IC50 (μM) MDA-MB-231.
A further data set concerns SK-MEL-28. The data set can be described thus: MTT assay, antitumor activity (Figure 1 table). The conditions noted are these: for IC50: read-out: IC50 (μM) SK-MEL-28. In general terms: Tetrazolium dyes change colour on reduction, which living cells bring about.
The subject of a further data set is DU-145. Put plainly: MTT assay, antitumor activity (Figure 1 table). The following applies: for IC50: read-out: IC50 (μM) DU-145.
Another data set concerns Salmonella strain TA98. Put plainly: Ames mutagenicity test. Background: The Ames test detects mutagens through reverse mutation in bacteria.
A further data set has as its system OVCAR-3. The data set can be described thus: MTT assay, antitumor activity (Figure 1 table).
Data set [1] deals with several human cancer cell lines. Put plainly: Screening of corrole derivatives and their NPs on several cancer cell lines. In kind it is cell-based. The following applies: not consistent upon repeated experiments for 2-Au. On the procedure:
Multiple corrole derivatives and their NPs were tested on several cancer cell lines. These include several metal chelated derivatives of 5,10,15-tris(pentafluorophenyl)corrole (2-H3) (Figure 1A); β-substituted (iodinated and brominated) corroles and several of its metal chelates (only 4-Au data are shown); different meso substituted corroles and their metal chelates (e.g., 5,15-di(pentafluorophenyl)-10-(imidazolyl)-corrole gallium(III), not presented); and the new synthetically available compound 5,10,15-tris(trifluoromethyl)corrole with different chelated metals (only the gallium(III) chelate 3-Ga is presented in Figure 1A). […] The best candidates from the high molecular weight list of corrole derivatives were the gold complexes 2-Au and 4-Au. […] Though there was an apparent effect on the cell cycle progression of the treated cells, there was no apparent cell death outcome accompanying the cell cycle arrest. Furthermore, the cell population within the culture wells appeared to be dividing freely and completely covering the wells’ surface (data not shown).

For the next data set, the system named is Salmonella strain TA100. Put plainly: Ames mutagenicity test. The following applies: S9: Yes.

Protocol for DU-145: (§1) Cell death was evaluated using a colorimetric [3-(4,5-dimethyl-thiazol-2-yl)-2,5-diphenyl-tetrazolium bromide] (MTT) assay. […] Cells intended for US exposure were plated separately. […] After this incubation period, purple formazan salt crystals were formed by a NADP/NADPH-dependent process, in metabolically active cells. […] The absorption of MTT was determined in a Tecan Sunrise Elisa-Reader (Switzerland) at 570/650 nm after automatic subtraction of background readings.
Protocol for MDA-MB-231: as §1
Protocol for OVCAR-3: as §1
Protocol for SK-MEL-28: as §1
Description for Salmonella strain TA100: (§2) Briefly, the Ames test uses 5 bacterial strains (Salmonella and E. coli) that are exposed to a given compound with and without an enzymatic bioactivation system derived from rodent liver (S9). Each bacterial strain has a different loss of function mutation in a gene essential for the biosynthesis of a required amino acid, histidine in Salmonella or tryptophan in E. coli, such that they cannot grow and form colonies on agar plates lacking these amino acids.
Description for Salmonella strain TA98: as §2

What is called IC50 is the concentration at which inhibition is half-maximal. For `Fc1c(F)c(F)c(C2=C3C=CC(=N3)C(c3c(F)c(F)c(F)c(F)c3F)=c3ccc4[n]3[Au]3[n]5c2ccc5-c2ccc([n]23)C=4c2c(F)c(F)c(F)c(F)c2F)c(F)c1F` [2-Au], the IC50 in the data set with MDA-MB-231 lay in the range of 0.01 to 1 µM; in the data set on SK-MEL-28 it was 0.006 to 5 µM; in the data set on DU-145, 0.005 to 4 µM.

For the compound `O=[N+]([O-])c1ccc2c(c1)Cc1ccccc1-2` [2-nitrofluorine], the “AMES Result (Positive/Negative)” value in the data set on Salmonella strain TA98 (S9: No) was “Positive”.

`Fc1c(F)c(F)c(C2=C3C=CC(=N3)C(c3c(F)c(F)c(F)c(F)c3F)=c3ccc4[n]3[Mn]3[n]5c2ccc5-c2ccc([n]23)C=4c2c(F)c(F)c(F)c(F)c2F)c(F)c1F` [2-Mn]: the values for the IC50 with MDA-MB-231, with SK-MEL-28 and in the data set with DU-145 were 4 µM, 5 µM and 10 µM, respectively.

Consider `Fc1c(F)c(F)c(C2=C3C=CC(=N3)C(c3c(F)c(F)c(F)c(F)c3F)=c3ccc4[n]3[Au]3[n]5c2c(I)c(I)c5-c2c(I)c(I)c([n]23)C=4c2c(F)c(F)c(F)c(F)c2F)c(F)c1F` [4-Au], for which the IC50 with MDA-MB-231 was 1 to 10 µM; with OVCAR-3 (read-out: IC50 (μM) OVCAR-3), 1 µM; in the data set on SK-MEL-28 it was 1 to 10 µM; in the data set with DU-145 it was 0.07 to 1 µM. In addition, the “IC50 values in several human cancer cell lines (in words)” value in data set [1] is reported as “submicromolar to single micromolar”.

For the compound `Fc1c(F)c(F)c(-c2c3nc(c(-c4c(F)c(F)c(F)c(F)c4F)c4ccc([nH]4)c4ccc([nH]4)c(-c4c(F)c(F)c(F)c(F)c4F)c4ccc2[nH]4)C=C3)c(F)c1F` [2-H3, 5,10,15-tris(pentafluorophenyl)corrole], the “IC50 (μM) MDA-MB-231” value in the data set with MDA-MB-231 was “ambiguous”. Further, the “IC50 (μM) OVCAR-3” value with OVCAR-3 is reported as “ambiguous”. Also, in the data set on SK-MEL-28, the “IC50 (μM) SK-MEL-28” value is “ambiguous”. In addition, the “IC50 (μM) DU-145” value in the data set with DU-145 is recorded as “ambiguous”.

Consider `Nc1cccc2cc3ccccc3cc12` [aminoanthracene], for which the “AMES Result (Positive/Negative)” value with Salmonella strain TA100 and in the data set with Salmonella strain TA98 (S9: Yes) was “Positive” each time.
